Test results published in patent publication US12252524B2, “GIP/GLP1 co-agonist compounds” (Eli Lilly and Company, priority 2018, dated 2025).
Numbered stars: 1 amine (or outer) side, 2 acyl side, 3 side chain; on linkers, the order of the positions; unused ones are H or OH. Square brackets hold non-standard residues; d marks the D form. Side chains are listed from the residue outwards. Peptide text beside a SMILES is read from it. * marks the point of attachment. C20 diacid = O=C(O)CCCCCCCCCCCCCCCCCCC(=O)*; C18 diacid = O=C(O)CCCCCCCCCCCCCCCCC(=O)*; αMePhe(2-F) = C[C@](N)(Cc1ccccc1F)C(=O)O; γGlu = O=C(O)[C@H](CCC(=O)[*:2])N[*:1]; αMeL = CC(C)C[C@](C)(N)C(=O)O; Dab = NCC[C@H](N)C(=O)O; Dap = NC[C@H](N)C(=O)O; AEEA = NCCOCCOCC(=O)O; Aib = CC(C)(N)C(=O)O

Columns and labels:
[1] = molecular target: human GLP-1R (Homo sapiens, UniProt P43220); assay: [125I]-GLP-1 binding (SPA), human GLP-1 receptor; set-up: expressed in transfected cells; crude membranes; details: read-out: hGLP1R Ki, (nM) (SEM, n)
Sequence of human GLP-1R (P43220 24-463): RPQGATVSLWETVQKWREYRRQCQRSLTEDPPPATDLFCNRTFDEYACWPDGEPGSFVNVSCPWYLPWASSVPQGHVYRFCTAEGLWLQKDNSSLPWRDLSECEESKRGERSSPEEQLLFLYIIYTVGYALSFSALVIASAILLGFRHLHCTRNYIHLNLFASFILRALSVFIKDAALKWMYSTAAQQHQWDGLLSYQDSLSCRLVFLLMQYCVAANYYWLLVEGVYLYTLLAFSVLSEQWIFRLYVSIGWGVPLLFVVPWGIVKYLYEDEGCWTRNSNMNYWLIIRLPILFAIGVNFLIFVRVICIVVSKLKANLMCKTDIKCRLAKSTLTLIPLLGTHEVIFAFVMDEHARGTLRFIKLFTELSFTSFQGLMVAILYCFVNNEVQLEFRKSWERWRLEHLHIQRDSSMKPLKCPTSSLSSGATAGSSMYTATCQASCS
Procedure, shortened: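 Frozen cell pellets are lysed on ice in hypotonic Tris buffer, pH 7.5, homogenized, and centrifuged to a membrane pellet resuspended at about 1 to 3 mg/mL. Binding is then measured in HEPES-based buffer at pH 7.4, and curves are fitted to give IC50 and Ki.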

[2] = molecular target: human GLP-1 receptor (GLP-1R) (Homo sapiens, UniProt P43220); assay: cAMP pharmacological functional assay in presence of casein, hGLP-1R; assay type: cell-based; details: HEK293 cells expressing hGLP-1R, 0.1% Casein, geometric mean; read-out: hGLP1R cAMP Rel EC50 nM (SEM, n)
Sequence of human GLP-1 receptor (GLP-1R) (P43220 24-463): as above

[3] = molecular target: T1, human Gcg receptor (Homo sapiens, UniProt P47871); assay: [125I]-Glucagon binding (SPA), human Gcg receptor; details: read-out: hGLcgR Ki, nM (SEM, n)
T1 construct: expressed in transfected cells; crude membranes
T1 sequence (P47871 26-477): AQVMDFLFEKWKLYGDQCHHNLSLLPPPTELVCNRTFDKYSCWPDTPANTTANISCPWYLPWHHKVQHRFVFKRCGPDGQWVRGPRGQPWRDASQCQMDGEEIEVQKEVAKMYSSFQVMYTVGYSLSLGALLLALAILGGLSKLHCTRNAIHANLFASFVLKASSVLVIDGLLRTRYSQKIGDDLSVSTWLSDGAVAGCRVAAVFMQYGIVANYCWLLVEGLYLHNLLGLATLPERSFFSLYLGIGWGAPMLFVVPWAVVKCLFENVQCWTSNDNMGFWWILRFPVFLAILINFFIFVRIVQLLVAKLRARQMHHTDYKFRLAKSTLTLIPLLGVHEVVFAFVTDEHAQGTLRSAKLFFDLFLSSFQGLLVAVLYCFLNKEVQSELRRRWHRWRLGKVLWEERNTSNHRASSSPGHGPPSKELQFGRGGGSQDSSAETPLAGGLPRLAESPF
Procedure, shortened: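 Scintillation counts are taken after membranes and WGA beads incubate and settle for 12 hours at room temperature. Buffer is 25 mM HEPES, pH 7.4, with CaCl2, MgCl2, bacitracin and Tween-20. Ki values, from four-parameter IC50 fits, are geometric means over independent days.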

[4] = molecular target: T2, gastric inhibitory peptide receptor (GIPR) (Homo sapiens, UniProt P48546); assay: cAMP pharmacological functional assay in presence of casein, hGIPR; assay type: cell-based; details: HEK293 cells expressing hGIPR, 0.1% Casein, geometric mean; read-out: hGIPR cAMP Rel EC50 nM (SEM, n)
T2 sequence (P48546 22-466): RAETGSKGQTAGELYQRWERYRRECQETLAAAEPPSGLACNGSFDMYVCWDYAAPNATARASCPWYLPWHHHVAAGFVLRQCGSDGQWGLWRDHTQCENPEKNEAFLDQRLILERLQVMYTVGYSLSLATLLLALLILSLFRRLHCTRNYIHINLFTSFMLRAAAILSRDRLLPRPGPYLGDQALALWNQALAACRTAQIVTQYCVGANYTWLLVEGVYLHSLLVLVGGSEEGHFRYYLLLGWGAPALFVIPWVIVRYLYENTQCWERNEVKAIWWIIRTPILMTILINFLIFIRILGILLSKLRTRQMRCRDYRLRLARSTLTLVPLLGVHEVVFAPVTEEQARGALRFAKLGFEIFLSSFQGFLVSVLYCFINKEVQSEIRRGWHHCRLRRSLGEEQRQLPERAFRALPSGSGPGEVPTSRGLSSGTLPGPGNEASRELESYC

[5] = molecular target: T3, human GIP receptor (Homo sapiens, UniProt P48546); assay: [125I]-GIP binding (SPA), human GIP receptor; details: read-out: hGIPR Ki, nM (SEM, n)
T3 construct: expressed in transfected cells; crude membranes
T3 sequence (P48546 22-466): T2 sequence (P48546 22-466)

SMILES | Ki [1] | EC50 [2] | Ki [3] | EC50 [4] | Ki [5]
CC[C@H](C)[C@H](NC(=O)[C@H](CC(C)C)NC(=O)[C@H](Cc1ccc(O)cc1)NC(=O)[C@@H](CCC(=O)O)NC(=O)[C@@H](NC(=O)[C@H](Cc1ccccc1)NC(=O)[C@H](CCC(=O)O)NC(=O)C(C)(C)NC(=O)[C@H](CCC(N)=O)NC(=O)[C@H](C)NC(=O)[C@H](CCCCNC(=O)COCCOCCNC(=O)COCCOCCNC(=O)CCCCCCCCCCCCCCCCCCC(=O)O)NC(=O)[C@H](CCC(=O)O)NC(=O)[C@H](CC(=O)O)NC(=O)[C@H](CC(C)C)NC(=O)[C@](C)(CC(C)C)NC(=O)[C@@H](NC(=O)[C@H](CO)NC(=O)[C@H](Cc1ccc(O)cc1)NC(=O)[C@H](CC(=O)O)NC(=O)[C@H](CO)NC(=O)[C@@H](NC(=O)[C@](C)(Cc1ccccc1F)NC(=O)[C@@H](NC(=O)CNC(=O)[C@H](CCC(=O)O)NC(=O)C(C)(C)NC(=O)[C@@H](N)Cc1ccc(O)cc1)[C@@H](C)O)[C@@H](C)O)[C@@H](C)CC)[C@@H](C)CC)C(=O)N[C@@H](CCC(=O)O)C(=O)NCC(=O)NCC(=O)N1CCC[C@H]1C(=O)N[C@@H](CO)C(=O)N[C@@H](CO)C(=O)NCC(=O)N[C@@H](C)C(=O)N1CCC[C@H]1C(=O)N1CCC[C@H]1C(=O)N1CCC[C@H]1C(=O)N[C@@H](CO)C(N)=O [Example 215] (H-Y[Aib]EGT[αMePhe(2-F)]TSDYSI[αMeL]LDEK([AEEA-AEEA-C20 diacid])AQ[Aib]EFI[dE]YLIEGGPSSGAPPPS-NH2) | 6.85 nM | 0.0529 nM | 75.2 nM | 0.0525 nM | 0.0666 nM
CC[C@H](C)[C@H](NC(=O)[C@H](CC(C)C)NC(=O)[C@H](Cc1ccc(O)cc1)NC(=O)[C@@H](CCC(=O)O)NC(=O)[C@@H](NC(=O)[C@H](Cc1ccccc1)NC(=O)[C@H](CCC(=O)O)NC(=O)C(C)(C)NC(=O)[C@H](CCC(N)=O)NC(=O)[C@H](C)NC(=O)[C@H](CCCCNC(=O)COCCOCCNC(=O)COCCOCCNC(=O)[C@@H](N)CCCCNC(=O)CCCCCCCCCCCCCCCCCCC(=O)O)NC(=O)[C@H](CCC(=O)O)NC(=O)[C@H](CC(=O)O)NC(=O)[C@H](CC(C)C)NC(=O)C(C)(CC(C)C)NC(=O)[C@@H](NC(=O)[C@H](CO)NC(=O)[C@H](Cc1ccc(O)cc1)NC(=O)[C@H](CC(=O)O)NC(=O)[C@H](CO)NC(=O)[C@@H](NC(=O)C(C)(Cc1ccccc1F)NC(=O)[C@@H](NC(=O)CNC(=O)[C@H](CCC(=O)O)NC(=O)C(C)(C)NC(=O)[C@@H](N)Cc1ccc(O)cc1)[C@@H](C)O)[C@@H](C)O)[C@@H](C)CC)[C@@H](C)CC)C(=O)N[C@@H](CCC(=O)O)C(=O)NCC(=O)NCC(=O)N1CCC[C@H]1C(=O)N[C@@H](CO)C(=O)N[C@@H](CO)C(=O)NCC(=O)N[C@@H](C)C(=O)N1CCC[C@H]1C(=O)N1CCC[C@H]1C(=O)N1CCC[C@H]1C(=O)N[C@@H](CO)C(N)=O (stereo partly shown) [Example 216] | 2.34 nM | 0.0327 nM | 45.2 nM | 0.0401 nM | 0.0559 nM
CC[C@H](C)[C@H](NC(=O)[C@H](CC(C)C)NC(=O)[C@H](Cc1ccc(O)cc1)NC(=O)[C@@H](CCC(=O)O)NC(=O)[C@@H](NC(=O)[C@H](Cc1ccccc1)NC(=O)[C@H](CCC(=O)O)NC(=O)C(C)(C)NC(=O)[C@H](CCC(N)=O)NC(=O)[C@H](C)NC(=O)[C@H](CCCCNC(=O)COCCOCCNC(=O)COCCOCCNC(=O)CC[C@H](NC(=O)CCCCCCCCCCCCCCCCCCC(=O)O)C(=O)O)NC(=O)[C@H](CCN)NC(=O)[C@H](CC(=O)O)NC(=O)[C@H](CC(C)C)NC(=O)[C@](C)(CC(C)C)NC(=O)[C@@H](NC(=O)[C@H](CO)NC(=O)[C@H](Cc1ccc(O)cc1)NC(=O)[C@H](CC(=O)O)NC(=O)[C@H](CO)NC(=O)[C@@H](NC(=O)[C@](C)(Cc1ccccc1F)NC(=O)[C@@H](NC(=O)CNC(=O)[C@H](CCC(=O)O)NC(=O)C(C)(C)NC(=O)[C@@H](N)Cc1ccc(O)cc1)[C@@H](C)O)[C@@H](C)O)[C@@H](C)CC)[C@@H](C)CC)C(=O)N[C@@H](CCC(=O)O)C(=O)NCC(=O)NCC(=O)N1CCC[C@H]1C(=O)N[C@@H](CO)C(=O)N[C@@H](CO)C(=O)NCC(=O)N[C@@H](C)C(=O)N1CCC[C@H]1C(=O)N1CCC[C@H]1C(=O)N1CCC[C@H]1C(=O)N[C@@H](CO)C(N)=O [Example 217] (H-Y[Aib]EGT[αMePhe(2-F)]TSDYSI[αMeL]LD[Dab]K([AEEA-AEEA-γGlu-C20 diacid])AQ[Aib]EFI[dE]YLIEGGPSSGAPPPS-NH2) | 2.02 nM | 0.0383 nM | 516 nM | 0.0563 nM | 0.0376 nM
CC[C@H](C)[C@H](NC(=O)[C@H](CC(C)C)NC(=O)[C@H](Cc1ccc(O)cc1)NC(=O)[C@@H](CCC(=O)O)NC(=O)[C@@H](NC(=O)[C@H](Cc1ccccc1)NC(=O)[C@H](CCC(=O)O)NC(=O)C(C)(C)NC(=O)[C@H](CCC(N)=O)NC(=O)[C@H](C)NC(=O)[C@H](CCCCNC(=O)COCCOCCNC(=O)COCCOCCNC(=O)CC[C@H](NC(=O)CCCCCCCCCCCCCCCCCCC(=O)O)C(=O)O)NC(=O)[C@H](CN)NC(=O)[C@H](CC(=O)O)NC(=O)[C@H](CC(C)C)NC(=O)[C@](C)(CC(C)C)NC(=O)[C@@H](NC(=O)[C@H](CO)NC(=O)[C@H](Cc1ccc(O)cc1)NC(=O)[C@H](CC(=O)O)NC(=O)[C@H](CO)NC(=O)[C@@H](NC(=O)[C@](C)(Cc1ccccc1F)NC(=O)[C@@H](NC(=O)CNC(=O)[C@H](CCC(=O)O)NC(=O)C(C)(C)NC(=O)[C@@H](N)Cc1ccc(O)cc1)[C@@H](C)O)[C@@H](C)O)[C@@H](C)CC)[C@@H](C)CC)C(=O)N[C@@H](CCC(=O)O)C(=O)NCC(=O)NCC(=O)N1CCC[C@H]1C(=O)N[C@@H](CO)C(=O)N[C@@H](CO)C(=O)NCC(=O)N[C@@H](C)C(=O)N1CCC[C@H]1C(=O)N1CCC[C@H]1C(=O)N1CCC[C@H]1C(=O)N[C@@H](CO)C(N)=O [Example 218] (H-Y[Aib]EGT[αMePhe(2-F)]TSDYSI[αMeL]LD[Dap]K([AEEA-AEEA-γGlu-C20 diacid])AQ[Aib]EFI[dE]YLIEGGPSSGAPPPS-NH2) | 2.54 nM | 0.0423 nM | 270 nM | 0.0413 nM | 0.0593 nM
CC[C@H](C)[C@H](NC(=O)[C@H](CC(C)C)NC(=O)[C@H](Cc1ccc(O)cc1)NC(=O)[C@@H](CCC(=O)O)NC(=O)[C@@H](NC(=O)[C@H](Cc1ccccc1)NC(=O)[C@H](CCC(=O)O)NC(=O)C(C)(C)NC(=O)[C@H](CCC(N)=O)NC(=O)[C@H](C)NC(=O)[C@H](CCCCNC(=O)COCCOCCNC(=O)COCCOCCNC(=O)CC[C@H](NC(=O)CCCCCCCCCCCCCCCCC(=O)O)C(=O)O)NC(=O)[C@H](CCC(=O)O)NC(=O)[C@H](CC(=O)O)NC(=O)[C@H](CC(C)C)NC(=O)[C@](C)(CC(C)C)NC(=O)[C@@H](NC(=O)[C@H](CO)NC(=O)[C@H](Cc1ccc(O)cc1)NC(=O)[C@H](CC(=O)O)NC(=O)[C@H](CO)NC(=O)[C@@H](NC(=O)[C@](C)(Cc1ccccc1F)NC(=O)[C@@H](NC(=O)CNC(=O)[C@H](CCC(=O)O)NC(=O)C(C)(C)NC(=O)[C@@H](N)Cc1ccc(O)cc1)[C@@H](C)O)[C@@H](C)O)[C@@H](C)CC)[C@@H](C)CC)C(=O)N[C@@H](CCC(=O)O)C(=O)NCC(=O)NCC(=O)N1CCC[C@H]1C(=O)N[C@@H](CO)C(=O)N[C@@H](CO)C(=O)NCC(N)=O [Example 219] (H-Y[Aib]EGT[αMePhe(2-F)]TSDYSI[αMeL]LDEK([AEEA-AEEA-γGlu-C18 diacid])AQ[Aib]EFI[dE]YLIEGGPSSG-NH2) | 2.01 nM | 0.0403 nM | 373 nM | 0.0341 nM | 0.0689 nM
